From paper PMC10111423, “Antimalarial Imidazopyridines Incorporating an Intramolecular Hydrogen Bonding Motif: Medicinal Chemistry and Mechanistic Studies” (ACS Infectious Diseases, 2023)
Entries after “also recorded” stand apart in the source; their conditions may differ.

Experiments:
[1] = system: P. falciparum parasites; test: Cellular heme fractionation (heme speciation) assay; format: cell-based, Plasmodium falciparum
Protocol: At this juncture, it is noteworthy that a true hemozoin inhibitor causes a dose-dependent increase in “free” heme and a corresponding decrease in hemozoin. page 23: Table S2: Concentrations of fluorescent dyes used for confocal imaging of P. falciparum with respective excitation lasers and emission filter settings. Dye Concentration Excitation Laser Emission filter DRAQ 5 500 nM 580 nm 600-630 nm LysoTracker 100 nM 561 nm 575-630 nm Nile Red 100 nM 561 nm 575-630 nm ER-Tracker 100 nM 561 nm 575-630 nm MitoTracker 100 nM 561 nm 650-710 nm 1.3-NBD 50 nM 420 nm 500-550 nm 3.14-NBD 75 nM 420 nm 500-550 nm Heme Fractionation Assay […] The heme fractionation assay was performed according to the methods previously described.9 After the IC50 of the target compounds was determined, a counting plate was prepared by adding 10 μL of the isolated washed trophozoites to the corresponding wells of a flat-bottomed 96-well plate. […] The hemocytometer determined cell counts for these six samples were statistically compared to the cell counts determined by flow cytometry to test for agreement. 10 μL of cells from the counting plate were loaded onto a bright-lined hemocytometer, and five large squares were counted after 10 minutes of settling. The concentration of cells in each well of the plate was determined using equation 1: CH 1⁄4 […] […] Typically, 10,000 events were counted for each sample. […]

[2] = Metabolite identification in mouse liver microsomes; format: in vitro ADME; settings: NADPH-dependent
Protocol: started by addition of NADPH (1 mM) as cofactor and shaken for 30 minutes at 37 °C. The
reactions were then quenched by adding 300 µL of ice-cold acetonitrile containing internal
standard (carbamazepine, 0.0236 µg/mL) and centrifuged. The supernatant was transferred to
a fresh 96-well plate and analysed by LC-MS/MS (Agilent Rapid Resolution HPLC, AB
SCIEX 4500 MS). The relative loss of parent compound over time was monitored and plots
(concentration vs. time) were prepared per compound to determine the first order rate constant
for compound depletion. This was in turn used to calculate half-life, in vitro intrinsic clearance
and in vivo hepatic extraction ratio.6
Metabolite Identification Studies
The test compound (10 µM) was incubated at 37 °C in a solution containing 1 mg/ml
microsomes (MLM, male mouse CD1, Lot No. 1510043, Xenotech), magnesium chloride (5
mM) and NADPH (1 mM) in sodium phosphate buffer (100 mM, pH 7.4) for 60 minutes while
shaking. The samples were then prepared by ice-cold acetonitrile precipitation, centrifuged,
and filtered for LC-MS/MS analysis.
Controls containing all the sample constituents (not incubated), and in which NADPH,
microsomes or the test compound were individually excluded were also prepared and handled
similarly to the test sample. Verapamil (10 µM) was incubated concomitantly as a positive
Fluorescence Live-cell Microscopy […]

CCN(CCNc1cc2[nH]c(-c3cccc(C(F)(F)F)c3)nc2cn1)Cc1ccc(Cl)cc1O [Compound 14, 5-Chloro-2-((ethyl(2-((2-(3-(trifluoromethyl)phenyl)-1H-imidazo[4,5-c]pyridin-6-yl)amino)ethyl)amino)methyl)phenol]
Levels of hemozoin (Hz) Fe ([1]; between 0.5–2× IC50): significant decrease; also recorded: decreased
Levels of "free" heme Fe ([1]; increasing concentrations of compound): no statistically significant change; also recorded: no statistically significant effect
Number of metabolites identified [2]: 4
